# Test results reported in article PMC9599613 (Biomolecules, 2022).
# What was measured:
# [1] = target: T1, acetylcholinesterase (AChE) (Electrophorus electricus, UniProt O42275); assay: Anticholinesterase assay (Ellman's), AChE inhibition; type: biochemical
# T1 construct: acetylcholinesterase (AChE, obtained from Electrophorus electricus); from tissue
# Description: This enzyme method relied on the hydrolytic of acetyl cholinethioiodide (ATChI) by acetylcholinesterase and butyrylthiocholine iodide (BTchI) by butyrylcholinesterase. As a result of this breakdown, 5-thio-2-nitrobenoate anions formed. […] The absorption was measured with a spectrophotometer, as per the protocols. […] An amount of 0.1 M phosphate buffer (8.0 ± 0.1 pH) solution was prepared, whose final pH was adjusted by using the KOH solution.
# In this assay, 50 µL enzyme solution and 50 µL DTNB reagent were added to 1 mL test samples in a cuvette and then incubated at 30 °C for 15 min. Afterward, a 50 µL substrate solution was added to the mixture.
# [2] = target: T2, COX-2 (Homo sapiens, UniProt P35354); assay: biochemical
# T2 sequence (P35354 18-604): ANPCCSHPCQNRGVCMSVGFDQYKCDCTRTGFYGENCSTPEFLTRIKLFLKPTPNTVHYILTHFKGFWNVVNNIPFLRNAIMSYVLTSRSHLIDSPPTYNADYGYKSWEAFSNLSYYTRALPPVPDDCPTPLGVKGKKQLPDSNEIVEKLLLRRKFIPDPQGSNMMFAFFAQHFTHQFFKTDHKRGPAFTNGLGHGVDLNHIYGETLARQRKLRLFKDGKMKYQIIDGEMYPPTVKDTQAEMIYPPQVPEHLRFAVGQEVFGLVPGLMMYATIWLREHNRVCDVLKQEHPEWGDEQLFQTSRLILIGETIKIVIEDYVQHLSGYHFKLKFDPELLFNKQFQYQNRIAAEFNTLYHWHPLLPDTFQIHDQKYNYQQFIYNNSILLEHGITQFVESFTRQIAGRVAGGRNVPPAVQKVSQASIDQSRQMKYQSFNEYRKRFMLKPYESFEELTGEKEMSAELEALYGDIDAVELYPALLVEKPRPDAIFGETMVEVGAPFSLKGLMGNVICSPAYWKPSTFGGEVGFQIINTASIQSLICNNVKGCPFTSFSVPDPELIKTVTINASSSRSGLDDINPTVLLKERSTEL
# Description: The Cyclooxygenase enzymes (COX-1 and 2) inhibitory potential of our test compounds was determined according to the previously reported procedure. […] The enzyme solutions with a concentration of 0.7–0.8 μg/10 μL (COX-1) and 300 U/mL (COX-2) were prepared. To start the assay, for enzyme activation, 10 µL enzyme solution (kept in a cool temperature of 4 °C for 5 min) and cofactor containing hematin (50 µL, 1 mM), glutathione (0.9 mM) and TMPD in a Tris-buffer (0.1 M) with a pH 8.0 was added. After that, 60 µL of the enzyme solution was added to 20 µL of the test samples of various concentrations and incubated at room temperature for 5 to 10 min. Then, 20 µL of arachidonic acid (30 mM) was added to start the reaction. The mixture was then again incubated for 15 min at 37 °C, and absorbances were measured at 570 nm with UV-visible spectrophotometer. […] The % enzyme inhibitions were calculated by using the previously reported formula.
# T1 sequence (O42275 24-633): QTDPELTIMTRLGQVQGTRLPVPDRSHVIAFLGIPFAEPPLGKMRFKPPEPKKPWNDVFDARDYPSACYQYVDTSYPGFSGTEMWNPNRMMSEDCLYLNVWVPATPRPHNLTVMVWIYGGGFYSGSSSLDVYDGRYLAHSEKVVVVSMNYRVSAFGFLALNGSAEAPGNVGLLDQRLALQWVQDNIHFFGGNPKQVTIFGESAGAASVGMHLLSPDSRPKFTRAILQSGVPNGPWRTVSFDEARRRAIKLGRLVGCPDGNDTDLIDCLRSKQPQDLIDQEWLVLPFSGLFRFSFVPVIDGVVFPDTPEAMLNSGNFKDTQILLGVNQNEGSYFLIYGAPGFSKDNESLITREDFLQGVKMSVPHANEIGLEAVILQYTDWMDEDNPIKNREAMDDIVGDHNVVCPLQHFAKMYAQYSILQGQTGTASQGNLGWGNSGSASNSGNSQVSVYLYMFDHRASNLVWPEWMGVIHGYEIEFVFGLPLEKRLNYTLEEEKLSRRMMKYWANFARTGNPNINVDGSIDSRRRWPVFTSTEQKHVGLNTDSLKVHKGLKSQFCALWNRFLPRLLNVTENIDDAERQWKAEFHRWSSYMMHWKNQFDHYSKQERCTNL
structure (smiles),measurement,setting,value
"CCC(CCC(C)C1CCC2C3CCC4=CC(=O)CCC4(C)C3CCC12C)C(C)C (stereo not drawn) [Compound 2, 17-(5-ethyl-6-methylheptan-2-yl)-10,13-dimethyl-1,2,6,7,8,9,10,11,12,13,14,15,16,17-tetradecahydro-3H-cyclopenta[a]phenanthren-3-one]",IC50,[1],35.2 µM
same,AChE inhibition (%),[1]; 62.5 μg/mL,58.12 ± 0.34 %
same,AChE inhibition (%),[1]; 125 μg/mL,63.47 ± 0.49 %
same,AChE inhibition (%),[1]; 250 μg/mL,68.75 ± 0.14 %
same,AChE inhibition (%),[1]; 500 μg/mL,75.59 ± 0.30 %
same,AChE inhibition (%),[1]; 1000 μg/mL,80.85 ± 0.18 %
same,inhibition at 62.5 µg/mL,"[2]; 62.50 μg/mL, read-out: % COX-2 Inhibition",61.9 ± 1.13%
same,inhibition at 125 µg/mL,"[2]; 125 μg/mL, read-out: % COX-2 Inhibition",68.3 ± 0.64%
same,inhibition at 250 µg/mL,"[2]; 250 μg/mL, read-out: % COX-2 Inhibition",73.34 ± 0.63%
same,inhibition at 500 µg/mL,"[2]; 500 μg/mL, read-out: % COX-2 Inhibition",78.3 ± 0.64%
same,inhibition at 1000 µg/mL,"[2]; 1000 μg/mL, read-out: % COX-2 Inhibition",83.17 ± 0.72%
same,IC50,[2]; read-out: COX-2 IC50 (converted),20.5 µM
